The values that follow come from patent US20240408169A1 (priority 2023, published 2024).

The test system of assay [1] is NCI-H1048 cells. In words: MTT proliferation assay, NCI-H1048.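 Further: Dose-response in 96-well plates over 8 or 10 concentration points, with exposure spanning 3-4 cell doublings.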 It counts as cell-based. Particulars: 5 days compound exposure, 1:3 serial dilution starting at 10 μM. In general terms: Tetrazolium dyes change colour on reduction, which living cells bring about.
For assay [2], the target named is T1, CyclinA2/CDK2 (Homo sapiens, UniProt P20248).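 Further: plates equilibrated two hours at room temperature before polarization reading, IC50 fitted from eight-concentration compound titration curves.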
T1 construct: purchased CRELUX Protein Services
In words: Fluorescence Polarization (FP) competitive binding assay, Cyclin A2/Cdk2. (In general: In fluorescence polarisation assays a small probe gives low polarisation when free and higher when bound to something large.)

Assay [3] deals with T2, CyclinE1/CDK2 (Homo sapiens, UniProt P24864).
T2 construct: purchased Eurofins, discovery 14-475
As to the kind of experiment: Fluorescence Polarization (FP) competitive binding assay, Cyclin E1/Cdk2.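 Further: readings taken after two-hour equilibration at room temperature in HEPES buffer with NaCl, DTT, NP-40 and BSA, IC50 fitted from eight-concentration serial dilution series.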

In assay [4] the test system is WI-38 cells. In words: MTT proliferation assay, WI-38.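 Further: Eight- or ten-point dilution series, with exposure length chosen to span about three to four cell doublings.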 The assay is classed as cell-based. Particulars: 3 days compound exposure, 1:3 serial dilution starting at 10 μM.
Assay [5] concerns OVCAR3 cells. As to the kind of experiment: MTT proliferation assay, OVCAR3.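 Further: compound given as an 8- or 10-point series, one day after plating, with exposure covering roughly 3-4 cell doublings.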 It counts as cell-based. Particulars: 5 days compound exposure, 1:3 serial dilution starting at 10 μM.
Assay [6] has as its target T3, CyclinB1/CDK1 (Homo sapiens, UniProt P14635).
T3 construct: purchased Eurofins, discovery 14-450
As to the kind of experiment: Fluorescence Polarization (FP) competitive binding assay, Cyclin B1/Cdk1.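 Further: fluorescence polarization read after equilibration at room temperature, with IC50 taken from serially diluted dose-response curves.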

[7] abbreviates: 8 nM Cyclin A2/Cdk2, 2 nM FAM probe, average of 2-3 independent experiments, read-out: Cyclin A FP IC50.
Setting [8] is: 10 nM Cyclin E1/Cdk2, 2 nM FAM probe, average of 2-3 independent experiments, read-out: Cyclin E FP IC50.
[9] abbreviates: 10 nM Cyclin B1/Cdk1, 2 nM FAM probe; average of 2-3 independent experiments; read-out: Cyclin B FP IC50.
The mark [10] stands for this setting: read-out: Cyclin B FP IC50; 10 nM Cyclin B1/Cdk1, 2 nM FAM probe; average of 2-3 independent experiments.

pIC50: −log10 of the molar value. Where two headings read alike, the source gives them in different places. *1 amine or outer side, *2 acyl side, *3 side chain or, on linkers, in order; H or OH if unused. Where a SMILES comes first, the peptide text is derived from it. Bridges are numbered along the chain shown (N, C = ends). [ ]: non-standard residue; d: D form. The star is where a group is joined. X101 = CN([C@@H](Cc1cc(Cl)ccc1-c1cnn(C2CS(=O)(=O)C2)c1)C(=O)[*:2])[*:1]; X72 = CN([C@@H](Cc1cc(Cl)ccc1-c1cnn(C2CCS(=O)(=O)C2)c1)C(=O)[*:2])[*:1]; X13 = CN([C@@H](Cc1cc(Cl)ccc1-c1cnn(CCS(C)(=O)=O)c1)C(=O)[*:2])[*:1]; X55 = CN([C@@H](Cc1cc(Cl)ccc1-c1cnn(CCN2CCOCC2)c1)C(=O)[*:2])[*:1]; X82 = CN([C@@H](Cc1cc(Cl)ccc1-c1cnn(S(C)(=O)=O)c1)C(=O)[*:2])[*:1]; X16 = CN([C@@H](Cc1cc(Cl)ccc1-c1cnc2c(cnn2C)c1)C(=O)[*:2])[*:1]; X30 = CN([C@@H](Cc1cc(Cl)ccc1-c1ccc2c(c1)ncn2C)C(=O)[*:2])[*:1]; X99 = CC(=O)N1CCC(Oc2ccc(Cl)cc2C[C@@H](C(=O)[*:2])N(C)[*:1])CC1; X111 = CN([C@@H](Cc1cc(Cl)ccc1-c1nnc(C2CC2)o1)C(=O)[*:2])[*:1]; X19 = CN([C@@H](Cc1cc(Cl)ccc1-c1ccn2ccnc2c1)C(=O)[*:2])[*:1]; NMehhhLys(Me) = CN([C@@H](CCCCCCCN(C)[*:3])C(=O)[*:2])[*:1]; cBuCO(3,3-F2-1-CF3) = O=C(C1(C(F)(F)F)CC(F)(F)C1)*; Pro(trans-4-F) = O=C(O)[C@@H]1C[C@@H](F)CN1; Gly(cPr) = N[C@H](C(=O)O)C1CC1

As usually defined, the GI50 is the concentration that inhibits growth by half. What is called pIC50 is −log10 of the IC50, conventionally taken in molar units.

As for `CC(C)C[C@@H]1NC(=O)[C@@H](N(C)C(=O)[C@@H](NC(=O)[C@@H]2C[C@@H](F)CN2C(=O)C2(C(F)(F)F)CC(F)(F)C2)C2CC2)CCCCCCCN(C)C(=O)[C@H](Cc2cc(Cl)ccc2-c2ccn3ccnc3c2)N(C)C1=O` [Example 236] ({cBuCO(3,3-F2-1-CF3)}-[Pro(trans-4-F)][Gly(cPr)][NMehhhLys(Me)]L[X19]; lactam 3-C), the results for the GI50 in assay [1], in assay [4] and in assay [5] were 10 nM, 7.33 µM and 20 nM, respectively. For the same molecule, the pIC50 in assay [2] (setting [7]) was 7.52; in assay [3] (setting [8]) it was 6.11; in assay [6] (setting [9]), 7.70.

Take `CC(C)C[C@@H]1NC(=O)[C@@H](N(C)C(=O)[C@@H](NC(=O)[C@@H]2C[C@@H](F)CN2C(=O)C2(C(F)(F)F)CC(F)(F)C2)C2CC2)CCCCCCCN(C)C(=O)[C@H](Cc2cc(Cl)ccc2-c2cnn(S(C)(=O)=O)c2)N(C)C1=O` [Example 238] ({cBuCO(3,3-F2-1-CF3)}-[Pro(trans-4-F)][Gly(cPr)][NMehhhLys(Me)]L[X82]; lactam 3-C): the figures for the GI50 in assay [1], in assay [4] and in assay [5] were 10 nM, 17.3 µM and 20 nM, respectively. For the same molecule, the pIC50 in assay [2] was 7.52; in assay [3], 6.00; in assay [6] (setting [10]) it was 7.70.

`[2H]C([2H])([2H])n1cc(-c2ccc(Cl)cc2C[C@H]2C(=O)N(C)CCCCCCC[C@H](N(C)C(=O)[C@@H](NC(=O)[C@@H]3C[C@@H](F)CN3C(=O)C3(C(F)(F)F)CC(F)(F)C3)C3CC3)C(=O)N[C@@H](CC(C)C)C(=O)N2C)cn1` [Example 239]: the GI50 in assay [1] worked out at 20 nM; in assay [4] it was 14.3 µM; in assay [5], 20 nM. In addition, the pIC50 was 7.70 in assay [2] (setting [7]), 6.38 in assay [3] (setting [8]) and 7.70 in assay [6] (setting [9]).

On to `CC(C)C[C@@H]1NC(=O)[C@@H](N(C)C(=O)[C@@H](NC(=O)[C@@H]2C[C@@H](F)CN2C(=O)C2(C(F)(F)F)CC(F)(F)C2)C2CC2)CCCCCCCN(C)C(=O)[C@H](Cc2cc(Cl)ccc2-c2nnc(C3CC3)o2)N(C)C1=O` [Example 240] ({cBuCO(3,3-F2-1-CF3)}-[Pro(trans-4-F)][Gly(cPr)][NMehhhLys(Me)]L[X111]; lactam 3-C), for which the GI50 in assay [1] came out at 10 nM; in assay [4], 8.73 µM; in assay [5] it was 10 nM. Also, the pIC50 in assay [2] (read-out: Cyclin A FP IC50, 8 nM Cyclin A2/Cdk2, 2 nM FAM probe, average of 2-3 independent experiments) is 7.70; in assay [3], 6.85; in assay [6] (setting [10]), 7.70.

On to `CC(=O)N1CCC(Oc2ccc(Cl)cc2C[C@H]2C(=O)N(C)CCCCCCC[C@H](N(C)C(=O)[C@@H](NC(=O)[C@@H]3C[C@@H](F)CN3C(=O)C3(C(F)(F)F)CC(F)(F)C3)C3CC3)C(=O)N[C@@H](CC(C)C)C(=O)N2C)CC1` [Example 243] ({cBuCO(3,3-F2-1-CF3)}-[Pro(trans-4-F)][Gly(cPr)][NMehhhLys(Me)]L[X99]; lactam 3-C), for which the GI50 came out at 50 nM in assay [1], 13.3 µM in assay [4] and 40 nM in assay [5]. Further, the results for the pIC50 in assay [2], in assay [3] and in assay [6] (setting [10]) were 7.30, 6.16 and 7.70, respectively.

Turning to `CC(C)C[C@@H]1NC(=O)[C@@H](N(C)C(=O)[C@@H](NC(=O)[C@@H]2C[C@@H](F)CN2C(=O)C2(C(F)(F)F)CC(F)(F)C2)C2CC2)CCCCCCCN(C)C(=O)[C@H](Cc2cc(Cl)ccc2-c2cnc3c(cnn3C)c2)N(C)C1=O` [Example 250] ({cBuCO(3,3-F2-1-CF3)}-[Pro(trans-4-F)][Gly(cPr)][NMehhhLys(Me)]L[X16]; lactam 3-C), the GI50 was found to be 30 nM in assay [1], 5.55 µM in assay [4] and 30 nM in assay [5]. Further, the pIC50 was 7.52 in assay [2], 5.79 in assay [3] and 7.70 in assay [6] (setting [10]).

Turning to `CC(C)C[C@@H]1NC(=O)[C@@H](N(C)C(=O)[C@@H](NC(=O)[C@@H]2C[C@@H](F)CN2C(=O)C2(C(F)(F)F)CC(F)(F)C2)C2CC2)CCCCCCCN(C)C(=O)[C@H](Cc2cc(Cl)ccc2-c2ccc3c(c2)ncn3C)N(C)C1=O` [Example 251] ({cBuCO(3,3-F2-1-CF3)}-[Pro(trans-4-F)][Gly(cPr)][NMehhhLys(Me)]L[X30]; lactam 3-C), the results for the GI50 in assay [1], in assay [4] and in assay [5] were 10 nM, 13.9 µM and 10 nM, respectively. The pIC50 was 7.40 in assay [2], 6.03 in assay [3] and 7.70 in assay [6] (setting [10]).

For the molecule `CC(C)C[C@@H]1NC(=O)[C@@H](N(C)C(=O)[C@@H](NC(=O)[C@@H]2C[C@@H](F)CN2C(=O)C2(C(F)(F)F)CC(F)(F)C2)C2CC2)CCCCCCCN(C)C(=O)[C@H](Cc2cc(Cl)ccc2-c2cnn(C3CCS(=O)(=O)C3)c2)N(C)C1=O` (stereo partly drawn) [Example 253] ({cBuCO(3,3-F2-1-CF3)}-[Pro(trans-4-F)][Gly(cPr)][NMehhhLys(Me)]L[X72]; lactam 3-C), the results for the 50% growth inhibitory concentration (GI50) in assay [1], in assay [4] and in assay [5] were 40 nM, 9.93 µM and 20 nM, respectively. Moreover, the values for the pIC50 in assay [2] (setting [7]), in assay [3] (setting [8]) and in assay [6] (setting [9]) were 7.70, 6.48 and 7.70, respectively.

`CC(C)C[C@@H]1NC(=O)[C@@H](N(C)C(=O)[C@@H](NC(=O)[C@@H]2C[C@@H](F)CN2C(=O)C2(C(F)(F)F)CC(F)(F)C2)C2CC2)CCCCCCCN(C)C(=O)[C@H](Cc2cc(Cl)ccc2-c2cnn(C3CS(=O)(=O)C3)c2)N(C)C1=O` [Example 255] ({cBuCO(3,3-F2-1-CF3)}-[Pro(trans-4-F)][Gly(cPr)][NMehhhLys(Me)]L[X101]; lactam 3-C): the values for the concentration for 50% growth inhibition (GI50) in assay [1], in assay [4] and in assay [5] were 40 nM, 15.8 µM and 30 nM, respectively. The negative logarithm of the IC50 (pIC50) in assay [2] (setting [7]) was 7.70; in assay [3] (setting [8]), 6.68; in assay [6] (setting [9]), 7.70.

Consider `CC(C)C[C@@H]1NC(=O)[C@@H](N(C)C(=O)[C@@H](NC(=O)[C@@H]2C[C@@H](F)CN2C(=O)C2(C(F)(F)F)CC(F)(F)C2)C2CC2)CCCCCCCN(C)C(=O)[C@H](Cc2cc(Cl)ccc2-c2cnn(CCN3CCOCC3)c2)N(C)C1=O` [Example 256] ({cBuCO(3,3-F2-1-CF3)}-[Pro(trans-4-F)][Gly(cPr)][NMehhhLys(Me)]L[X55]; lactam 3-C), for which the 50% growth inhibitory concentration (GI50) in assay [1] was found to be 10 nM; in assay [4], 13.2 µM; in assay [5], 10 nM. The pIC50 in assay [2] (setting [7]) is 7.52; in assay [3] (setting [8]) it was 6.32; in assay [6] (setting [9]) it was 7.70.

In the case of `CC(C)C[C@@H]1NC(=O)[C@@H](N(C)C(=O)[C@@H](NC(=O)[C@@H]2C[C@@H](F)CN2C(=O)C2(C(F)(F)F)CC(F)(F)C2)C2CC2)CCCCCCCN(C)C(=O)[C@H](Cc2cc(Cl)ccc2-c2cnn(CCS(C)(=O)=O)c2)N(C)C1=O` [Example 257] ({cBuCO(3,3-F2-1-CF3)}-[Pro(trans-4-F)][Gly(cPr)][NMehhhLys(Me)]L[X13]; lactam 3-C), the GI50 in assay [1] is 10 nM; in assay [4] it was 13.3 µM; in assay [5], 10 nM. Further, the pIC50 in assay [2] (setting [7]) is 7.70; in assay [3] (setting [8]) it was 6.92; in assay [6] (setting [9]), 7.70.

With `CC(C)C[C@@H]1NC(=O)[C@@H](N(C)C(=O)[C@@H](NC(=O)[C@@H]2C[C@@H](F)CN2C(=O)C2(C(F)(F)F)CC(F)(F)C2)C2CC2)C/C=C\CCCCN(C)C(=O)[C@H](Cc2cc(Cl)cnc2OC2CC2)N(C)C1=O` [Example 258], the results for the GI50 in assay [1], in assay [4] and in assay [5] were 70 nM, 14.2 µM and 70 nM, respectively. Besides, the negative logarithm of the IC50 (pIC50) was 7.15 in assay [2] (setting [7]), 6.92 in assay [3] (setting [8]) and 7.70 in assay [6] (setting [9]).
